Legend:
[1] = system: gram-negative and gram-positive bacteria; settings: against both gram-negative and gram-positive bacteria; cited from earlier work
[2] = system: AV node conduction and cardiac contractibility; assay: Effect on PR interval (AV node conduction) and cardiac contractibility in anesthetized guinea pig, continuous IV infusion; format: in vivo; settings: infused at 6 μg/kg/min continuously IV
Experimental: The guinea pig or rat is anesthetized with pentobarbital at 40 mg/kg IP, then-connected to an EKG recorder. The animal is then placed on a small animal respirator. Aseptic surgical instruments are soaked in ethanol and then flamed. An incision is made in the chest wall to open the chest. A Walton Brody stain gauge arch is sutured to the right ventricle to measure contractile changes. The refractoriness of the AV node is determined by measuring the PR-interval on the surface EKG. Graphs can be created from the data displaying the dose related change in the PR interval to the dose related contractile augmentation. Digoxin or chiral isolates are infused through the jugular vein at concentrations (from 0.1 μM and then to 10 μM) at a constant rate by infusion pump, to determine the differential effects on the AV node and cardiac contractibility. The infusions are continued to a 50% level augmentation in contractibility or the development of ventricular tachycardia. To maintain a consistent level of anesthesia, pentobarbital 20 mg/kg IP or 10 mg/kg IV for more immediate action at 30-minute intervals may be administered.
The effect of digoxin and one of the two chiral isomers was evaluated in the guinea pig. Guinea pigs were anesthetized with pentobarbital. […] An EKG was continuously recorded. Conduction through the AV node was determined by measuring the PR interval on the surface EKG. […]

serum protein [3] = assay: Free fraction of digitoxin by centrifugation; format: in vitro ADME
Experimental: Free fraction of digitoxin increased with centrifugation time from 18% at 10 minutes to 37% at 80 minutes (500 g) without reaching plateau levels.

serum protein [4] = assay: Digitoxin serum protein binding by equilibrium dialysis; format: in vitro ADME, patients
Experimental: Digitoxin protein binding was dependent on albumin content. […] Chamber equilibrium dialysis gave similar results. […] (mean, 96.7%) and at 37° C. (mean, 96.9%). Digoxin isolates will be used under similar conditions.

[5] = system: digitoxin serum protein binding; assay: In vitro drug studies: ability to induce changes in digitoxin serum protein binding; settings: procainamide 5 mg/ml, phenytoin 50 mg/ml, heparin 5 IU/ml, rifampicillin 4.5 μg/ml
Experimental: Digoxin isolates will be used under similar conditions.
The ability to induce changes in digitoxin serum protein binding was tested for the following drugs: procainamide (5 mg/ml), phenytoin (50 mg/ml), heparin (5 IU/ml), and rifampicillin (4.5 μg/ml). […] Identical procedures will be used for digoxin isolates.

CC1COc2c(N3CCN(C)CC3)c(F)cc3c(=O)c(C(=O)O)cn1c23 (single isomer, unassigned; (-)) [(−)-Ofloxacin]
times more active as the racemate [1]: 8-128 times

CC1O[C@@H](O[C@H]2C(O)C[C@H](O[C@H]3C(O)C[C@H](OC4CC[C@@]5(C)[C@H](CC[C@@H]6[C@@H]5C[C@@H](O)[C@]5(C)[C@@H](C7=CC(=O)OC7)CC[C@]65O)C4)OC3C)OC2C)CC(O)[C@@H]1O (stereo partly shown) [Digoxin]
change in PR interval on the surface EKG [2]: progressive increase | change in cardiac contractibility as measured by the strain-gauge arch [2]: increase

C[C@H]1O[C@@H](O[C@H]2[C@@H](O)C[C@H](O[C@H]3[C@@H](O)C[C@H](O[C@H]4CC[C@@]5(C)[C@H](CC[C@@H]6[C@@H]5CC[C@]5(C)[C@@H](C7=CC(=O)OC7)CC[C@]65O)C4)O[C@@H]3C)O[C@@H]2C)C[C@H](O)[C@@H]1O [digitoxin]
free fraction (serum protein [3]; centrifugation 10 minutes, 500 g): 18% | free fraction (serum protein [3]; centrifugation 60 minutes, 135 g): 5.9% | free fraction (serum protein [3]; centrifugation 60 minutes, 560 g): 15.7% | free fraction (serum protein [3]; centrifugation 80 minutes, 500 g): 37% | digitoxin binding (mean) (serum protein [4]; sera from 9 patients dialyzed at 20° C.): 96.7% | digitoxin binding (mean) (serum protein [4]; sera from 9 patients dialyzed at 37° C.): 96.9%

O=C1NC(=O)C(c2ccccc2)(c2ccccc2)N1 [phenytoin]
changes in the serum protein binding of digitoxin [5]: None of these induced significant changes

CCN(CC)CCNC(=O)c1ccc(N)cc1 [procainamide]
changes in the serum protein binding of digitoxin [5]: None of these induced significant changes

heparin
changes in the serum protein binding of digitoxin [5]: None of these induced significant changes

rifampicillin
changes in the serum protein binding of digitoxin [5]: None of these induced significant changes

— US20100029577A1, “Chiral separation, characterization and biological action of optically active isomers of digoxin” (priority 2008, published 2010)
